“Also recorded” adds a separate entry of the source. Square brackets hold non-standard residues; d marks the D form. Peptide text beside a SMILES is read from it. * marks the point of attachment. Phe(F5) = N[C@@H](Cc1c(F)c(F)c(F)c(F)c1F)C(=O)O; Desaminotyrosyl = O=C(CCc1ccc(O)cc1)*; NMeY = CN[C@@H](Cc1ccc(O)cc1)C(=O)O; Agmatine = N=C(N)NCCCCN*; Nle = CCCC[C@H](N)C(=O)O; Orn = NCCC[C@H](N)C(=O)O; Abu = CC[C@H](N)C(=O)O; Ava = NCCCCC(=O)O; GABA = NCCCC(=O)O
What was measured:
GH release = experiment: In vivo GH release after subcutaneous administration; details: rat, s.c.
Experimental: Blood samples are taken from the jugular vein; 5, 15 and 30 minutes or only 15 and 30 minutes after the injection. The blood samples are centrifuged, plasma is removed and the GH level is measured by ELISA. The results are summarized in terms of potency in Table 9.

GHRH receptor = target: T1, GHRH receptor (Homo sapiens, UniProt Q02643); experiment: GHRH receptor binding, 125I-labeled JV-1-42 ligand competition, human pituitary membrane homogenates (Table 7); details: for IC50: 125I-labeled JV-1-42, human pituitary membranes
T1 construct: Normal human pituitaries were purchased from the National Hormone and Peptide Program; tissue National Hormone and Peptide Program (A. F. Parlow); host or cells: normal human pituitary, membrane fraction
T1 sequence (Q02643 23-423): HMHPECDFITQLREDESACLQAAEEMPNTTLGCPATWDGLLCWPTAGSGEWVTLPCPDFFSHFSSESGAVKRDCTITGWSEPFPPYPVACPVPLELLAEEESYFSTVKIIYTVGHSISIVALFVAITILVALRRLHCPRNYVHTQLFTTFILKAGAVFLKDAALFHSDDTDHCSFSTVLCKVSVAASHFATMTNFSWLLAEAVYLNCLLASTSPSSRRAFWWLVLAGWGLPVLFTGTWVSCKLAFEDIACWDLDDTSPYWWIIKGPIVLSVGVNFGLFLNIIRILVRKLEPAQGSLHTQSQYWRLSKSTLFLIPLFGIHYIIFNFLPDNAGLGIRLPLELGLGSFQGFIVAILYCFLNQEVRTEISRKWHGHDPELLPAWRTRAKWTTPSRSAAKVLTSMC
Experimental: Preparation of human pituitary membrane fraction and receptor binding of GHRH agonists were performed as previously described, by using a sensitive in vitro ligand competition assay based on binding of ^125I-labeled JV-1-42 to human pituitary membrane homogenates. Normal human pituitaries were purchased from the National Hormone and Peptide Program (A. F. Parlow, Los Angeles, County Harbor-UCLA Medical Center, Torrance, Calif.).

| IC50 (GHRH receptor) | Relative affinity (Binding potency) vs JI-38 (GHRH receptor; relative to JI-38 = 1) | Compound | GH response after subcutaneous administration (in words) (GH release) |
| --- | --- | --- | --- |
| 0.71 nM | – | CCCC[C@H](NC(=O)[C@@H](NC(=O)[C@H](CC(=O)O)NC(=O)[C@H](CCC(N)=O)NC(=O)[C@H](CC(C)C)NC(=O)[C@H](CC(C)C)NC(=O)[C@H](CCCN)NC(=O)[C@H](CCCNC(=N)N)NC(=O)[C@H](C)NC(=O)[C@H](CO)NC(=O)[C@H](CC(C)C)NC(=O)[C@H](CCC(N)=O)NC(=O)[C@H](CC)NC(=O)[C@H](CC(C)C)NC(=O)[C@@H](NC(=O)[C@H](CCCN)NC(=O)[C@H](CCCNC(=N)N)NC(=O)[C@H](Cc1ccc(O)cc1)NC(=O)[C@H](CO)NC(=O)[C@H](CCC(N)=O)NC(=O)[C@@H](NC(=O)[C@H](Cc1ccccc1)NC(=O)[C@@H](NC(=O)[C@H](C)NC(=O)[C@H](CC(=O)O)NC(=O)[C@@H](C)NC(=O)[C@H](Cc1ccc(O)cc1)NC)[C@@H](C)CC)[C@@H](C)O)C(C)C)[C@@H](C)CC)C(=O)N[C@@H](CC(=O)O)C(=O)N[C@@H](CCCNC(=N)N)C(=O)NCCCCC(N)=O [Peptide P-22326, [N—Me-Tyr^1, D-Ala^2, Gln^8, Orn^12, Abu^15, Orn^21, Nle^27, Asp^28, Apa^30]hGH-RH(1-30)NH2] (H-[NMeY][dA]DAIFTQSYR[Orn]VL[Abu]QLSAR[Orn]LLQDI[Nle]DR[Ava]-NH2) | unusually high responses; also recorded: especially greater growth hormone levels than hGH-RH or JI-38 |
| 1.07 nM | – | CCCC[C@H](NC(=O)[C@@H](NC(=O)[C@H](CC(=O)O)NC(=O)[C@H](CCC(N)=O)NC(=O)[C@H](CC(C)C)NC(=O)[C@H](CC(C)C)NC(=O)[C@H](CCCN)NC(=O)[C@H](CCCNC(=N)N)NC(=O)[C@H](C)NC(=O)[C@H](CO)NC(=O)[C@H](CC(C)C)NC(=O)[C@H](CCC(N)=O)NC(=O)[C@H](CC)NC(=O)[C@H](CC(C)C)NC(=O)[C@@H](NC(=O)[C@H](CCCN)NC(=O)[C@H](CCCNC(=N)N)NC(=O)[C@H](Cc1ccc(O)cc1)NC(=O)[C@H](CO)NC(=O)[C@H](CC(N)=O)NC(=O)[C@@H](NC(=O)[C@H](Cc1ccccc1)NC(=O)[C@@H](NC(=O)[C@H](C)NC(=O)[C@H](CC(=O)O)NC(=O)[C@@H](C)NC(=O)[C@H](Cc1ccc(O)cc1)NC)[C@@H](C)CC)[C@@H](C)O)C(C)C)[C@@H](C)CC)C(=O)N[C@@H](CO)C(=O)N[C@@H](CCCNC(=N)N)C(=O)NCCCC(N)=O [Peptide P-25501, [N—Me-Tyr^1, D-Ala^2, Orn^12, Abu^15, Orn^21, Nle^27, Gab^30]hGH-RH(1-30)NH2] (H-[NMeY][dA]DAIFTNSYR[Orn]VL[Abu]QLSAR[Orn]LLQDI[Nle]SR[GABA]-NH2) | unusually high responses; also recorded: especially greater growth hormone levels than hGH-RH or JI-38 |
| 0.87 nM | 5.00 | CCCC[C@H](NC(=O)[C@@H](NC(=O)[C@H](CC(=O)O)NC(=O)[C@H](CCC(N)=O)NC(=O)[C@H](CC(C)C)NC(=O)[C@H](CC(C)C)NC(=O)[C@H](CCCN)NC(=O)[C@H](CCCNC(=N)N)NC(=O)[C@H](C)NC(=O)[C@H](CO)NC(=O)[C@H](CC(C)C)NC(=O)[C@H](CCC(N)=O)NC(=O)[C@H](CC)NC(=O)[C@H](CC(C)C)NC(=O)[C@@H](NC(=O)[C@H](CCCN)NC(=O)[C@H](CCCNC(=N)N)NC(=O)[C@H](Cc1ccc(O)cc1)NC(=O)[C@H](CO)NC(=O)[C@H](CC(N)=O)NC(=O)[C@@H](NC(=O)[C@H](Cc1c(F)c(F)c(F)c(F)c1F)NC(=O)[C@@H](NC(=O)[C@H](C)NC(=O)[C@H](CC(=O)O)NC(=O)[C@@H](C)NC(=O)[C@H](Cc1ccc(O)cc1)NC)[C@@H](C)CC)[C@@H](C)O)C(C)C)[C@@H](C)CC)C(=O)N[C@@H](CC(=O)O)C(=O)N[C@@H](CCCNC(=N)N)C(=O)NC [Peptide P-27404, [N—Me-Tyr^1, D-Ala^2, Fpa5^6, Orn^12, Abu^15, Orn^21, Nle^27, Asp^28]hGH-RH(1-29)NH—CH3] (H-[NMeY][dA]DAI[Phe(F5)]TNSYR[Orn]VL[Abu]QLSAR[Orn]LLQDI[Nle]DR-NHMe) | unusually high responses; also recorded: especially greater growth hormone levels than hGH-RH or JI-38 |
| 1.06 nM | – | CCCC[C@H](NC(=O)[C@@H](NC(=O)[C@H](CC(=O)O)NC(=O)[C@H](CCC(N)=O)NC(=O)[C@H](CC(C)C)NC(=O)[C@H](CC(C)C)NC(=O)[C@H](CCCN)NC(=O)[C@H](CCCNC(=N)N)NC(=O)[C@H](C)NC(=O)[C@H](CO)NC(=O)[C@H](CC(C)C)NC(=O)[C@H](CCC(N)=O)NC(=O)[C@H](CC)NC(=O)[C@H](CC(C)C)NC(=O)[C@@H](NC(=O)[C@H](CCCN)NC(=O)[C@H](CCCNC(=N)N)NC(=O)[C@H](Cc1ccc(O)cc1)NC(=O)[C@H](CO)NC(=O)[C@H](CC(N)=O)NC(=O)[C@@H](NC(=O)[C@H](Cc1ccccc1)NC(=O)[C@@H](NC(=O)[C@H](C)NC(=O)[C@H](CC(=O)O)NC(=O)[C@@H](C)NC(=O)[C@H](Cc1ccc(O)cc1)NC)[C@@H](C)CC)[C@@H](C)O)C(C)C)[C@@H](C)CC)C(=O)N[C@@H](CC(=O)O)C(=O)N[C@@H](CCCNC(=N)N)C(=O)NC [Peptide P-27409, [N—Me-Tyr^1, D-Ala^2, Orn^12, Abu^15, Orn^21, Nle^27, Asp^28]hGH-RH(1-29)NH—CH3] (H-[NMeY][dA]DAIFTNSYR[Orn]VL[Abu]QLSAR[Orn]LLQDI[Nle]DR-NHMe) | unusually high responses; also recorded: especially greater growth hormone levels than hGH-RH or JI-38 |

More lines, now with the values behind:

| Compound | IC50 (GHRH receptor) | Relative affinity (Binding potency) vs JI-38 (GHRH receptor; relative to JI-38 = 1) | GH response after subcutaneous administration (in words) (GH release) |
| --- | --- | --- | --- |
| CCCC[C@H](NC(=O)[C@@H](NC(=O)[C@H](CC(=O)O)NC(=O)[C@H](CCC(N)=O)NC(=O)[C@H](CC(C)C)NC(=O)[C@H](CC(C)C)NC(=O)[C@H](CCCN)NC(=O)[C@H](CCCNC(=N)N)NC(=O)[C@H](C)NC(=O)[C@H](CO)NC(=O)[C@H](CC(C)C)NC(=O)[C@H](CCC(N)=O)NC(=O)[C@H](CC)NC(=O)[C@H](CC(C)C)NC(=O)[C@@H](NC(=O)[C@H](CCCN)NC(=O)[C@H](CCCNC(=N)N)NC(=O)[C@H](Cc1ccc(O)cc1)NC(=O)[C@H](CO)NC(=O)[C@H](CCC(N)=O)NC(=O)[C@@H](NC(=O)[C@H](Cc1ccccc1)NC(=O)[C@@H](NC(=O)[C@H](C)NC(=O)[C@H](CC(=O)O)NC(=O)[C@@H](C)NC(=O)CCc1ccc(O)cc1)[C@@H](C)CC)[C@@H](C)O)C(C)C)[C@@H](C)CC)C(=O)N[C@@H](CC(=O)O)C(=O)NCCCCNC(=N)N [Peptide P-20350, [Dat^1, D-Ala^2, Gln^8, Orn^12, Abu^15, Orn^21, Nle^27, Asp^28, Agm^29]hGH-RH(1-29)] (Desaminotyrosyl-[dA]DAIFTQSYR[Orn]VL[Abu]QLSAR[Orn]LLQDI[Nle]D-Agmatine) | – | – | unusually high responses; also recorded: especially greater growth hormone levels than hGH-RH or JI-38 |
| CCCC[C@H](NC(=O)[C@@H](NC(=O)[C@H](CC(=O)O)NC(=O)[C@H](CCC(N)=O)NC(=O)[C@H](CC(C)C)NC(=O)[C@H](CC(C)C)NC(=O)[C@H](CCCN)NC(=O)[C@H](CCCNC(=N)N)NC(=O)[C@H](C)NC(=O)[C@H](CO)NC(=O)[C@H](CC(C)C)NC(=O)[C@H](CCC(N)=O)NC(=O)[C@H](CC)NC(=O)[C@H](CC(C)C)NC(=O)[C@@H](NC(=O)[C@H](CCCN)NC(=O)[C@H](CCCNC(=N)N)NC(=O)[C@H](Cc1ccc(O)cc1)NC(=O)[C@H](CO)NC(=O)[C@H](CC(N)=O)NC(=O)[C@@H](NC(=O)[C@H](Cc1ccccc1)NC(=O)[C@@H](NC(=O)[C@H](C)NC(=O)[C@H](CC(=O)O)NC(=O)[C@@H](C)NC(=O)[C@H](Cc1ccc(O)cc1)NC)[C@@H](C)CC)[C@@H](C)O)C(C)C)[C@@H](C)CC)C(=O)N[C@@H](CC(=O)O)C(=O)N[C@@H](CCCNC(=N)N)C(=O)NCC [Peptide P-28421, [N—Me-Tyr^1, D-Ala^2, Orn^12, Abu^15, Orn^21, Nle^27, Asp^28]hGH-RH(1-29)NH—CH2—CH3] (H-[NMeY][dA]DAIFTNSYR[Orn]VL[Abu]QLSAR[Orn]LLQDI[Nle]DR-NHEt) | 1.47 nM | – | – |
| CCCC[C@H](NC(=O)[C@@H](NC(=O)[C@H](CC(=O)O)NC(=O)[C@H](CCC(N)=O)NC(=O)[C@H](CC(C)C)NC(=O)[C@H](CC(C)C)NC(=O)[C@H](CCCN)NC(=O)[C@H](CCCNC(=N)N)NC(=O)[C@H](C)NC(=O)[C@H](CO)NC(=O)[C@H](CC(C)C)NC(=O)[C@H](CCC(N)=O)NC(=O)[C@H](CC)NC(=O)[C@H](CC(C)C)NC(=O)[C@@H](NC(=O)[C@H](CCCN)NC(=O)[C@H](CCCNC(=N)N)NC(=O)[C@H](Cc1ccc(O)cc1)NC(=O)[C@H](CO)NC(=O)[C@H](CC(N)=O)NC(=O)[C@@H](NC(=O)[C@H](Cc1ccccc1)NC(=O)[C@@H](NC(=O)[C@H](C)NC(=O)[C@H](CC(=O)O)NC(=O)[C@@H](C)NC(=O)CCc1ccc(O)cc1)[C@@H](C)CC)[C@@H](C)O)C(C)C)[C@@H](C)CC)C(=O)N[C@@H](CO)C(=O)N[C@@H](CCCNC(=N)N)C(=O)N[C@@H](CCC(N)=O)C(=O)NCCCC(N)=O [Peptide P-29702, [Dat^1, D-Ala^2, Orn^12, Abu^15, Orn^21, Nle^27, Gln-Gab^30]hGH-RH(1-30)NH2] (Desaminotyrosyl-[dA]DAIFTNSYR[Orn]VL[Abu]QLSAR[Orn]LLQDI[Nle]SRQ[GABA]-NH2) | 0.86 nM | – | – |

— patent publication US9079974B2, “GH-RH analogs with potent agonistic effects” (The University of Miami, priority 2011, dated 2015)
